Data published in US20170329062A1, “OPTICAL FILM AND FLEXIBLE DEVICE USING THE OPTICAL FILM” (SUMITOMO CHEMICAL COMPANY, LIMITED, priority 2016, published 2017).

What was measured:
[1] = Solubility of ultraviolet absorbent in N,N-dimethylacetamide at 25° C.; format: physicochemical
[2] = Molar extinction coefficient of ultraviolet absorbent in 20 mg/L toluene solution; format: physicochemical
Description: (manufactured by JASCO Corporation) Measured Concentration: 20 mg/L Solvent: toluene

SMILES | Solubility at 25° C. with respect to DMAc [1] [g/100 g-DMAc] | Molar extinction coefficient 360 nm [2] | Molar extinction coefficient 370 nm [2] | Molar extinction coefficient 380 nm [2] | Molar extinction coefficient 390 nm [2] | Molar extinction coefficient 400 nm [2] [L/mol/cm] | Molar extinction coefficient 420 nm [2] [L/mol/cm]
CC(C)(C)CC(C)(C)c1cc(Cc2cc(C(C)(C)CC(C)(C)C)cc(-n3nc4ccccc4n3)c2O)c(O)c(-n2nc3ccccc3n2)c1 [LA31, 2,2′-methylenebis[6-(2H-benzotriazole-2-yl)-4-(1,1,3,3-tetramethylbutyl)phenol]] | >10 | 27,300 L/mol · cm | 19,800 L/mol · cm | 9,000 L/mol · cm | 1,400 L/mol · cm | <50 | <50
CCCCC(CC)C(=O)OCCOc1ccc(-c2nc(-c3ccccc3)nc(-c3ccccc3)n2)c(O)c1 (stereo not shown) [LA46, 2-(4,6-diphenyl-1,3,5-triazine-2-yl)-5-[2-(2-ethylhexanoyloxy)ethoxy]phenol] | >10 | 10000 L/mol/cm | 3,000 L/mol · cm | 160 L/mol/cm | <50 L/mol/cm | <30 | <30
CC(C)(C)CC(C)(C)c1ccc(O)c(-n2nc3ccccc3n2)c1 [Sumisorb 340, 2-(2-hydroxy-5-tert-octylphenyl)benzotriazole] | >10 | 13,100 L/mol · cm | 7,700 L/mol · cm | 2,200 L/mol · cm | 320 L/mol/cm | <50 | <50
CCC(C)(C)c1cc(-n2nc3ccccc3n2)c(O)c(C(C)(C)CC)c1 [Sumisorb 350, 2-(2-hydroxy-3,5-di-tert-pentylphenyl)benzotriazole] | >10 | 13,900 L/mol · cm | 9,700 L/mol · cm | 4,800 L/mol · cm | 1,200 L/mol · cm | 210 | <50
